# Data from patent publication US12600732B2, “Bifunctional compounds for degrading BTK via ubiquitin proteosome pathway” (NURIX THERAPEUTICS, INC., priority 2019, dated 2026).
# Tests used:
# ITK = biological target: T1, ITK (Homo sapiens, UniProt Q08881); assay: ITK levels in MOLT4 and TMD8 cells (FIGS. 10-12); format: cell-based; details: for effect on ITK levels in cells: MOLT4 and TMD8 cells, FIGS. 11A and 11B
# T1 construct: endogenous in cells; host or cells: MOLT4, TMD8
# T1 sequence (Q08881 1-620): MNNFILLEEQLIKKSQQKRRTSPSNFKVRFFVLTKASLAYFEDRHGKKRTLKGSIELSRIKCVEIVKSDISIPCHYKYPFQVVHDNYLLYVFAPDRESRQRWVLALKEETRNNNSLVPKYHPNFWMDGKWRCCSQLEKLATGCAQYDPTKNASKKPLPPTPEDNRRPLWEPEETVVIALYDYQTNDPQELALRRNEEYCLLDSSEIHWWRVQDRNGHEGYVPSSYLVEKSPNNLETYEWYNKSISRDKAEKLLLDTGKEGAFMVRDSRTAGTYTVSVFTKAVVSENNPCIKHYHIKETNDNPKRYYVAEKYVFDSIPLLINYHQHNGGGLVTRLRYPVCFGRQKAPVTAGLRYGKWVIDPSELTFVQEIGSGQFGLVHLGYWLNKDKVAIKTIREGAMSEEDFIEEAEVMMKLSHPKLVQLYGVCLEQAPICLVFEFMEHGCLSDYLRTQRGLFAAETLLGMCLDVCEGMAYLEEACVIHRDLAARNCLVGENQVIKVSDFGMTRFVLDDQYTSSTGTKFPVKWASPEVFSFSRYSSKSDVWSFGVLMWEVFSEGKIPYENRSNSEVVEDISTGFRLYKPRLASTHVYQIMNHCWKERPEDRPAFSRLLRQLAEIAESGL
# Source text: FIGS. 10A and 10B provide effects of compounds 73, 72, 121, and 44, and control compounds, on neo-substrate and ITK or BTK levels after twenty-four hours in MOLT4 cells (FIG. 10A) and TMD8 cells (FIG. 10B).
# FIGS. 11A and 11B provide effects of compounds 44, 72, and 149, and control compounds, on CRBN neo-substrate and ITK levels in MOLT4 cells (FIG. 11A) and TMD8 cells (FIG. 11B).
# FIG. 12 provides effects of compounds 130, 149, and 44 on ITK levels and IMiD activity.
# Ikaros = biological target: T2, Ikaros (Homo sapiens, UniProt Q13422+Q96SW2); assay: Ikaros degradation in Mantle Cell Lymphoma lines (flow cytometry); format: cell-based; details: treatment time 24 h
# T2 construct: endogenous in cells; host or cells: Mino, Rec-1
# Source text: Ikaros and Aiolos Degradation in Mantle Cell Lymphoma Lines (Ikaros and Aiolos Flow Cytometry)
# This example evaluates the IMiD activity of CTMs in cellular models of Mantle Cell Lymphoma (MCL). […] These assays are to determine potency of CTMs for degrading IMiD neo-substrates in cellular models of MCL and to generate data to inform efficacy studies in MCL xenografts.
# Mino cells = assay: Cell viability assay (CellTiter-Glo), Mino cells; format: cell-based; details: for EC50: Homo sapiens; for EC50 / EMAX (% viable cells): Mino cells, treatment time 72 h; for potency on cell viability compared with compound 130: MCL cell lines (Mino and Rec-1)
# Source text: This example evaluates effects of CTM-mediated degradation on cell viability. […] Mino and Rec-1 are models of Mantle Cell Lymphoma, which is sensitive to IMiDs.
# BTK = BTK (Homo sapiens, UniProt Q06187); assay: BTK degradation in human PBMCs (BTK flow cytometry), primary human B cells; format: cell-based; set-up: endogenous in cells; host or cells: human PBMC (B cells) from healthy donors
# Protocol: Human peripheral blood mononuclear cells (PBMC) were obtained either: 1) by using Ficoll-Paque™ (GE Healthcare) for separation of peripheral blood hematopoietic cells from buffy coats of healthy human donors; or 2) directly from LeukoPak donations. PBMCs were grown at 37° C. and 5% CO2 in RPMI supplemented with 10% heat-inactivated FBS (Corning Premium Fetal Bovine Serum from Fisher, MT35015CV), 1× Penicillin/Streptomycin, and 2 mM Glutamine.
# BTK Degradation in Human PBMCs (BTK Flow Cytometry)
# This example evaluates the potency of CTMs in primary human B cells, rather than transformed or immortalized cancer cell lines. Primary cells are believed to be a physiologically relevant model. Thus, this example confirms the potency, kinetics, and level of BTK degradation in these cells in addition to the cell line models. Furthermore, this assay establishes that it is possible to monitor BTK degradation in primary human B cells, which can serve as a clinical biomarker.
# TEC kinase = biological target: T3, TEC kinase (Homo sapiens, UniProt P42680); assay: TEC kinase degradation in K562 cells (western blot); format: cell-based; details: FIGS. 13A-13D; for effects on TEC kinase levels: four hours, 0.026-2000 nM, western blot
# T3 construct: endogenous in cells; host or cells: K562
# T3 sequence (P42680 1-631): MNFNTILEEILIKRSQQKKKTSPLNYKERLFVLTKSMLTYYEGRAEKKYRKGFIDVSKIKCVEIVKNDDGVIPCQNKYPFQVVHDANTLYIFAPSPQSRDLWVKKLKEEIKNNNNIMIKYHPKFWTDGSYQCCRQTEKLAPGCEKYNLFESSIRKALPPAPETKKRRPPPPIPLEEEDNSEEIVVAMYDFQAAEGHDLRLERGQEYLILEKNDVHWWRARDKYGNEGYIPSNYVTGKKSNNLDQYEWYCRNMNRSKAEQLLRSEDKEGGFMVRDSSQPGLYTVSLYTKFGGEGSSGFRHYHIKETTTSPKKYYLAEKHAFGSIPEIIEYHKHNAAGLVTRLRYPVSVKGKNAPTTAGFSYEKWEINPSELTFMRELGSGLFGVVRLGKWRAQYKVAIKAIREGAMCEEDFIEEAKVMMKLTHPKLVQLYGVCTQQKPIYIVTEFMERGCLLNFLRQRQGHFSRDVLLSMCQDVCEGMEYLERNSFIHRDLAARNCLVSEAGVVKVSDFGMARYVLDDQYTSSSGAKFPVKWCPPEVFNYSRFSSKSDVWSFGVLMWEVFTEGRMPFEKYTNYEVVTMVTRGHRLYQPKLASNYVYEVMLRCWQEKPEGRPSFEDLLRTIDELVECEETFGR
# Protocol: To determine effects of BTK CTMs on TEC levels in cells, K562 cells were treated for four hours with CTMs at concentrations between 0.026-2000 nM. TEC levels in cell lysate was assessed by western blot.
# Aiolos = assay: Non-human primate (cyno) DRF PD, Aiolos remaining in T cells; format: in vivo; details: for % Aiolos Remaining in T cells: blood, 24 h after previous dose
# Protocol: This example evaluates potency and tolerability of BTK CTMs following multiple, consecutive days of dosing and examines potency of compounds for BTK and Aiolos degradation. The data in the table below is from a study in which animals were dosed daily with the designated oral dose. Analysis for BTK and Aiolos levels was performed twenty-four hours following the previous dose.
# [1] = after twenty-four hours, TMD8 and/or MOLT4 cells, FIGS. 10A and 10B
# [2] = 10 mg/kg PO daily, 1 day of dosing
# [3] = 10 mg/kg PO daily, 14 days of dosing
# [4] = 30 mg/kg PO daily, 1 day of dosing
# [5] = 30 mg/kg PO daily, 14 days of dosing
# [6] = 100 mg/kg PO daily, 1 day of dosing
# [7] = 100 mg/kg PO daily, 14 days of dosing
# T2 sequence (Q13422 whole entry): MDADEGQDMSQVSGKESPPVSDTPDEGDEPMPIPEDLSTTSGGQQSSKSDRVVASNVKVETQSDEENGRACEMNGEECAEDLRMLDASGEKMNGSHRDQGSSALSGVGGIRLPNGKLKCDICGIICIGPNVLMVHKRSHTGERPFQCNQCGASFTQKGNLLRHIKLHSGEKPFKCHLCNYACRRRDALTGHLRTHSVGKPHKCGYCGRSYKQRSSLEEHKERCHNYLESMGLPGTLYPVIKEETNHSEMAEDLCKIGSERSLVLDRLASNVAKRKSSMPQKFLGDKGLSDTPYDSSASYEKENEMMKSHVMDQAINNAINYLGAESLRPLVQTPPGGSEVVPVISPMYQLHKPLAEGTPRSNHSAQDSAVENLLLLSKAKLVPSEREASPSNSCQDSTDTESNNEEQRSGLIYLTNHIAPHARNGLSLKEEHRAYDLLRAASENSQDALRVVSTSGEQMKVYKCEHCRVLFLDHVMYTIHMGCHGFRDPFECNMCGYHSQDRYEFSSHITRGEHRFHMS
# T2 sequence (Q96SW2 whole entry): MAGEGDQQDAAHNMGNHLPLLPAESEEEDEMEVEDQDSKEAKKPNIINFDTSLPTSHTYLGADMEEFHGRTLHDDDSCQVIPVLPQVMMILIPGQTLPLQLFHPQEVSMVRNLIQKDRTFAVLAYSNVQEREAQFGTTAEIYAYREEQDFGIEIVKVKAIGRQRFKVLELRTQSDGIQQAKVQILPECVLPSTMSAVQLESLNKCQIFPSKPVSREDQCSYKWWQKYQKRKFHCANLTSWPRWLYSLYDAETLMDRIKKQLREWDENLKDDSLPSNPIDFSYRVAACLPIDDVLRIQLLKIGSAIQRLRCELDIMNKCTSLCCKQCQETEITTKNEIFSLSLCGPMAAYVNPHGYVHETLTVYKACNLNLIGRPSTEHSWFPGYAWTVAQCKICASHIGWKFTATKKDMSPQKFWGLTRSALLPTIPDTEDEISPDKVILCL
# T2 sequence (Q16531 whole entry partner): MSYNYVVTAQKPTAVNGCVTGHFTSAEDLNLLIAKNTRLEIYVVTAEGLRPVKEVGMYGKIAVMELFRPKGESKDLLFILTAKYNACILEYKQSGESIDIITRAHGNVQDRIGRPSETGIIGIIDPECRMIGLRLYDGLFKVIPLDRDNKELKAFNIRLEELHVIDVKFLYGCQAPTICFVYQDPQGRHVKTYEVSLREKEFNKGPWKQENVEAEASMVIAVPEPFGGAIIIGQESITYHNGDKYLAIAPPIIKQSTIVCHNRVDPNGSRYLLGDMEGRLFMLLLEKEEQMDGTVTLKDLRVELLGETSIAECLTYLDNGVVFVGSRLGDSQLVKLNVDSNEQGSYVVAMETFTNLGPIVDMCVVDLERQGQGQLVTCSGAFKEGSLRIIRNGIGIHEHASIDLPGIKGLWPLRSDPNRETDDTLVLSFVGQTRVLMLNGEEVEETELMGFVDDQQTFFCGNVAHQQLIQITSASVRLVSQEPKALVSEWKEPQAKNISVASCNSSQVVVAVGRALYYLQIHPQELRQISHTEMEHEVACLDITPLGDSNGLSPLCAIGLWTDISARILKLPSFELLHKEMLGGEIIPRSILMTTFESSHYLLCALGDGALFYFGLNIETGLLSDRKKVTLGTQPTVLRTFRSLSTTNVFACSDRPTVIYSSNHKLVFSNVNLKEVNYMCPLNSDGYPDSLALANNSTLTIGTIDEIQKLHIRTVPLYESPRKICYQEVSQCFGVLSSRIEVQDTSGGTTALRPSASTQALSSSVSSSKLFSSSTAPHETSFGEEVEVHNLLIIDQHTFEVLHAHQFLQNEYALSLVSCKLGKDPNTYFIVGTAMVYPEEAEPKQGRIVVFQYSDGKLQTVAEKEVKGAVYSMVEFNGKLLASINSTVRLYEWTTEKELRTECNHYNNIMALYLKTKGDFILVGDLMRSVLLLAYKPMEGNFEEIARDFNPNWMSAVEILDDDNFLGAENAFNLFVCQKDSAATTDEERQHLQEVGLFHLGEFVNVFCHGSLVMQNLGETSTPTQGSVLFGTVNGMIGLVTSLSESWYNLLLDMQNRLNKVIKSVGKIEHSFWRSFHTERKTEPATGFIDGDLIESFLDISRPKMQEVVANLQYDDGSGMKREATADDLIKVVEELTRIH
# BTK, sequence (Q06187 whole entry): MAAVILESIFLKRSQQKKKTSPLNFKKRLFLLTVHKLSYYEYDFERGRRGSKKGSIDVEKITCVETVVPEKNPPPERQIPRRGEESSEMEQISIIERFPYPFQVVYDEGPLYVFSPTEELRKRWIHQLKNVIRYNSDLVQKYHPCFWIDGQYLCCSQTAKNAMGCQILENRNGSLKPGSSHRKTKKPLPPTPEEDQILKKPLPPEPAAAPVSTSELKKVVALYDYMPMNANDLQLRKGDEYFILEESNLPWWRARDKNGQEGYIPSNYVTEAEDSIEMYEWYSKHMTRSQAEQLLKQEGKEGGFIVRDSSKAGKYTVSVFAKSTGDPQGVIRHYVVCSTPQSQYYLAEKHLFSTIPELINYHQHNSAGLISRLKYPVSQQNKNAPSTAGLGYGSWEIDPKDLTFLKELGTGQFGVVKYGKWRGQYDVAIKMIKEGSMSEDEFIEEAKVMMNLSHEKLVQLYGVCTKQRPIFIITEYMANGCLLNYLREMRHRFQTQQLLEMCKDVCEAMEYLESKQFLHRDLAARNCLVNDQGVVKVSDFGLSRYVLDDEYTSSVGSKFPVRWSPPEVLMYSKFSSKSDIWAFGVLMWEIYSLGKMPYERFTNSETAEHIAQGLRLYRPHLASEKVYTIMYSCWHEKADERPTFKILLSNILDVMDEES
Structure (SMILES),effects on ITK levels (ITK; [1]),DC50 (Ikaros; Mino cells),DC50 (Ikaros; Rec-1 cells),DC50 (BTK; treatment time 1 h),DC50 (BTK; treatment time 2 h),DC50 (BTK; treatment time 4 h),degradation of BTK compared with TEC (TEC kinase),effects on TEC kinase levels (TEC kinase),effects on ITK levels (ITK; FIG. 12),EC50 (Mino cells),potency on cell viability compared with compound 130 (Mino cells),EMAX (% viable cells) (Mino cells),% Aiolos Remaining in T cells (Aiolos; [2]),% Aiolos Remaining in T cells (Aiolos; [3]),% Aiolos Remaining in T cells (Aiolos; [4]),% Aiolos Remaining in T cells (Aiolos; [5]),% Aiolos Remaining in T cells (Aiolos; [6]),% Aiolos Remaining in T cells (Aiolos; [7]),effect on ITK levels in cells (ITK),Aiolos degradation (Aiolos; after fourteen days of dosing)
CN1CCN([C@H]2CCCN(c3cnc(C(N)=O)c(Nc4ccc(C5CCN(CC6CCN(c7ccc(C(=O)NC8CCC(=O)NC8=O)nc7)CC6)CC5)cc4)n3)C2)C1=O (some centres unmarked) [Compound 130],,> 2 µM,> 2 µM,,,0.00013 µM,more potent degradation of BTK than TEC,mild to moderate effects,slight effects,0.176 µM,,78%,102%,96%,98%,108%,106%,99%,,
NC(=O)c1ncc(N2CCCCC2)nc1Nc1ccc(C2CCN(C[C@@H]3CCN(c4ccc5c(c4)C(=O)N(C4CCC(=O)NC4=O)C5=O)C3)CC2)cc1 (some centres unmarked) [Compound 149],,0.13 µM,0.061 µM,,,0.0019 µM,more potent degradation of BTK than TEC,mild to moderate effects,,0.0034 µM,more potent,50%,79%,76%,74%,55%,77%,43%,some effect,demonstrated Aiolos degradation
CN1CCN([C@@H]2CCCN(c3cnc(C(N)=O)c(Nc4ccc(C5CCN(CC6CCN(c7ccc8c(=O)n(C9CCC(=O)NC9=O)ccc8c7)CC6)CC5)cc4)n3)C2)C1=O (some centres unmarked) [Compound 72],does affect,,,,,,more potent degradation of BTK than TEC,mild to moderate effects,slight effects,,,,,,,,,,,

# Second part, led by results:
effects on ITK levels (ITK; [1]),DC50 (Ikaros; Mino cells),DC50 (Ikaros; Rec-1 cells),DC50 (BTK; treatment time 1 h),DC50 (BTK; treatment time 2 h),DC50 (BTK; treatment time 4 h),degradation of BTK compared with TEC (TEC kinase),effects on TEC kinase levels (TEC kinase),effects on ITK levels (ITK; FIG. 12),Structure (SMILES),EC50 (Mino cells),potency on cell viability compared with compound 130 (Mino cells),EMAX (% viable cells) (Mino cells),% Aiolos Remaining in T cells (Aiolos; [2]),% Aiolos Remaining in T cells (Aiolos; [3]),% Aiolos Remaining in T cells (Aiolos; [4]),% Aiolos Remaining in T cells (Aiolos; [5]),% Aiolos Remaining in T cells (Aiolos; [6]),% Aiolos Remaining in T cells (Aiolos; [7]),effect on ITK levels in cells (ITK),Aiolos degradation (Aiolos; after fourteen days of dosing)
minimal effects,,,,,,,,,CN1CCN([C@@H]2CCCN(c3cnc(C(N)=O)c(Nc4ccc(C5CCN(CC6CCN(c7ccc(-c8nn(C9CCC(=O)NC9=O)c(=O)n8C)cc7)CC6)CC5)cc4)n3)C2)C1=O (some centres unmarked) [Compound 121],,,,,,,,,,,
some effects,1.4 µM,0.072 µM,0.006 µM,0.003 µM,0.00051 µM,more potent degradation of BTK than TEC,mild to moderate effects,,CN1CCN([C@@H]2CCCN(c3cnc(C(N)=O)c(Nc4ccc(C5CCN(C[C@H]6CCN(c7ccc8c(c7)C(=O)N(C7CCC(=O)NC7=O)C8=O)C6)CC5)cc4)n3)C2)C1=O (some centres unmarked) [Compound 44],0.0117 µM,more potent,61%,96%,71%,99%,69%,96%,63%,some effect,
